One compound from article PMC11314561, “Design and Synthesis of Novel Aminoindazole-pyrrolo[2,3-b]pyridine Inhibitors of IKKα That Selectively Perturb Cellular Non-Canonical NF-κB Signalling” (Molecules, 2024) can be followed below.

In the assay the test system is p52/RelB nuclear translocation in PC-3M cells. Nature of the assay: LTα1β2-stimulated p52/RelB nuclear translocation, Western blotting of crude nuclear extracts. The class given is cell-based. Conditions: Homo sapiens, LTα1β2 4 h. Here is the method:
Associated with the IKKα-mediated activation of the non-canonical NF-κB pathway is the downstream liberation and the nuclear translocation of p52/RelB-containing NF-κB complexes. The extent of the nuclear translocation of these proteins was also assessed by Western blotting of crude nuclear extracts prepared from PC-3M cells. […] Related to the markers of TNFα-stimulated canonical NF-κB signalling, 6g [SU1349] had no impact on any of TNFα-stimulated IκBα degradation, phosphorylation of p65 (Ser536), or p105 (Ser932) phosphorylation in these cells (Figure 15C).
For examination of potential effects of compound on non-canonical NF-κB signalling, cells were exposed to vehicle (DMSO; 0.03–0.05% (v/v)) or increasing concentrations of compounds (0.01–30 µM) for 1 h prior to treatment with FCS (10% (v/v); for U2OS cells) or LTα1β2 (20 ng/mL; for PC-3M cells) for 4 h. The status of p-p100 (Ser 866/870) in whole-cell extracts prepared from 12-well plates was assessed by Western blotting, as described in McKenzie et al.. […] Thereafter, p52 and RelB status in crude nuclear extracts normalised for protein amounts were assessed by Western blotting.
Each figure/panel of Western blotting data represents one of at least three separate experiments. […] Data were normalised to fold expression/inhibition relative to ‘agonist plus vehicle’ treatment and expressed as mean ± s.e.m. […]

As a reminder, the IC50 is the concentration at which inhibition is half-maximal. Low readings indicate greater potency in that assay, high ones weaker potency in that assay. With `Nc1n[nH]c2ccc(-c3ccnc4[nH]c(-c5ccnc(OCc6ccccc6)c5)cc34)cc12` [Compound 6g [SU1349]], the IC50 was determined as 150 nM.
